According to patent EP2246329A1, “4(1H)-pyridinone derivatives and their use as antimalaria agents” (Glaxo Group Limited, priority 2009, dated 2010):

Tested on: Plasmodium falciparum
Assay: In vitro anti-malarial activity against Plasmodium falciparum, IC50 assay / [3H]-Hypoxanthine incorporation assay
Assay type: cell-based
Settings: Erythrocyte; Plasmodium falciparum strains in parasitized red blood cells, [3H]-hypoxanthine incorporation, 48 hours at 37°C
Protocol: The compounds of this invention may be tested in one of several biological assays to determine the concentration of compound which is required to have a given pharmacological effect. In vitro anti-malarial activity against Plasmodium falciparum. IC50 assay / [^3H]-Hypoxanthine assay
The culture medium comprised RPMI 1640 with 25mM HEPES, sodium bicarbonate and glutamine (GIBCO™ cat. ref.: 52400), supplemented with 10% of pooled human sera AB (Irvine Scientific, cat. ref.: 5009) and HT supplement (0.15 mM hypoxanthine and 24 µM thymidine), (GIBCO™ cat. ref.: 41065). Human sera were decomplemented 30 min. at 56°C, aliquoted and stored frozen at -20°C until use in this culture medium.
This culture medium ("complete medium") was usually prepared fresh just before use and pre-warmed to 37°C.
Red blood cells O+ stock suspensions were prepared from whole blood bags coming from incomplete blood donation, provided by the Spanish Red Cross (<25 days after sampling). This "whole blood" was aliquoted and stored at 4°C.
To prepare red blood cells for the assay, the whole blood was centrifuged and washed 3 times with RPMI without serum. The upper phase, containing white blood cells was removed. The washed red blood cells were kept as a 50 % suspension in complete medium. The prepared cells were stored at 4°C and were employed in the assay at any time up to 4 days after preparation.
Test compounds were dissolved at 2 mg/ml in 100% DMSO on the day of the assay. If necessary, complete dissolution was achieved by gentle heating (the mixture was heated at a temperature <37°C) and sonication (sonication bath).
For IC50 determinations, 10 serial 2-fold dilutions were prepared in complete medium in the presence of a constant amount of DMSO. Any obvious signs of insolubility of the stock solutions in 100% DMSO or precipitation when these solutions were diluted in assay media, were recorded.
Plasmodium falciparum strains were maintained in complete medium at an hematocrit of 5% in continuous culture using a method adapted from that published by Trager and Jensen(1) and Traeger(2).
The parasitemia was calculated by counting the percentage of parasitized erythrocytes by optical microscopy. Thin films of blood were made every day from each culture flask, fixed with methanol and stained for 10 min. in Giemsa (Merck, cat. ref.: 1.09204) at 10 % in buffered water pH 7.2. The glass slides were observed and counted with an optical microscope (Nikon, Eclipse E200) equipped with a 100 X immersion oil objective.
The culture was maintained at an hematocrit of 5%, with a daily change of medium and was diluted when parasitemia had reached about 5%.
[^3H] Hypoxanthine incorporation assay was conducted using a method adapted from Desjardins et al. (3). The assays were performed in 96 wells flat bottom microplates. • 1. Serial dilutions of the test compounds (50µl of a 5X solution / well) were deposited in duplicate. Compounds of the invention were tested in this assay. Chloroquine and Atovaquone were used as control compounds for each assay. • 2. […] [^3H]-Hypoxanthine (Amersham Biosciences, cat. ref.: TRK74) was added extemporaneously to the inoculum suspension at a concentration of 1 µCi/ml (equating to […]). 200 µl of the resulting suspension was distributed into each well (other than the control well H12 described below) leading to a final volume of 250 µl per well, at 2% of hematocrit and 0.5 % of parasitemia / well. • 4. […]

Going from `Cc1[nH]c(C)c(-c2ccc(-c3ccc(CN4CCC(c5ccc(OC(F)(F)F)cc5)CC4)cc3)nc2)c(=O)c1Cl.Cl` [Example 64, 5-chloro-2,6-dimethyl-6'-{4-[(4-{4-[(trifluoromethyl)oxy]phenyl}-1-piperidinyl)methyl]phenyl}-3,3'-bipyridin-4(1H)-one hydrochloride] to `Cc1[nH]c(C)c(-c2ccc(OCCN3CCC(C(F)(F)F)CC3)nc2)c(=O)c1Cl.Cl` [Example 68, 5-chloro-2,6-dimethyl-6'-({2-[4-(trifluoromethyl)-1-piperidinyl]ethyl}oxy)-3,3'-bipyridin-4(1H)-one hydrochloride], the IC50 rises from under 0.125 µg/mL to 0.21 µg/mL.

`Cc1[nH]c(C)c(-c2ccc(C(F)(F)CN3CCC(C(F)(F)F)CC3)nc2)c(=O)c1Cl` [Example 67, 5-chloro-6'-{1,1-difluoro-2-[4-(trifluoromethyl)-1-piperidinyl]ethyl}-2,6-dimethyl-3,3'-bipyridin-4(1H)-one] showed an IC50 of under 0.125 µg/mL.
